The source of these data is ChEMBL document CHEMBL4837181 (Eur J Med Chem, 2020).

Data set [1] is described as follows: Chemical stability of compound in saline assessed as compound remaining at 5 uM measured after 24 hrs by LC-MS/MS analysis. It counts as physicochemical. The note with it: read-out: Stabilty.
A short description of data set [2]: Chemical stability of compound in 0.1 N aqueous HCl buffer assessed as compound remaining at pH 1 at 5 uM measured after 1.5 hrs by LC-MS/MS analysis. Conditions: pH 1, 1.5 h. It counts as physicochemical.
A short description of data set [3]: Chemical stability of compound in 0.1 N aqueous HCl buffer assessed as compound remaining at pH 1 at 5 uM measured after 24 hrs by LC-MS/MS analysis. It counts as physicochemical. The note with it: pH 1, 24 h.
The nature of data set [4]: Chemical stability of compound in PBS buffer assessed as compound remaining at pH 7.4 at 5 uM measured after 6 hrs by LC-MS/MS analysis. Format: physicochemical. The note with it: read-out: Stabilty.
Data set [5] is described as follows: Chemical stability of compound in PBS buffer assessed as compound remaining at pH 7.4 at 5 uM measured after 24 hrs by LC-MS/MS analysis. Format: physicochemical. The note with it: read-out: Stabilty.
A short description of data set [6]: Chemical stability of compound in simulated gastric fluid assessed as compound remaining at 5 uM measured after 1.5 hrs by LC-MS/MS analysis. It counts as ADME, physicochemical. Conditions: read-out: Stabilty.
The nature of data set [7]: Chemical stability of compound in simulated gastric fluid assessed as compound remaining at 5 uM measured after 24 hrs by LC-MS/MS analysis. It counts as ADME, physicochemical. The note with it: read-out: Stabilty.
Data set [8] is described as follows: Chemical stability of compound in simulated intestinal fluid assessed as compound remaining at 5 uM measured after 3 hrs by LC-MS/MS analysis. The note with it: read-out: Stabilty. It counts as ADME, physicochemical.
Data set [9] is described as follows: Chemical stability of compound in simulated intestinal fluid assessed as compound remaining at 5 uM measured after 24 hrs by LC-MS/MS analysis. It counts as ADME, physicochemical. The note with it: read-out: Stabilty.
Data set [10] can be described thus: Stability in mouse plasma assessed as parent compound remaining measured after 2 hrs by LC-MS/MS analysis. The note with it: read-out: Stabilty. Format: ADME, cell-free.
Data set [11] can be described thus: Stability in rat plasma assessed as parent compound remaining measured after 2 hrs by LC-MS/MS analysis. It counts as ADME, cell-free. The note with it: read-out: Stabilty.
Data set [12] is described as follows: Stability in human plasma assessed as parent compound remaining measured after 6 hrs by LC-MS/MS analysis. Format: ADME, cell-free. The note with it: read-out: Stabilty.
A short description of data set [13]: Stability in human plasma assessed as parent compound remaining measured after 24 hrs by LC-MS/MS analysis. It counts as ADME, cell-free. The note with it: read-out: Stabilty.
Data set [14] in a line: Dose normalized Cmax in rat at 10 mg/kg, po measured upto 72 hrs by LC-MS/MS analysis. It counts as ADME, organism-based. Conditions: in vivo.
Data set [15] can be described thus: Dose normalized AUC (0 to infinity) in rat at 10 mg/kg, po measured upto 72 hrs by LC-MS/MS analysis. Format: ADME, organism-based. Conditions: in vivo.
The nature of data set [16]: Change in normalised Cmax in rat at 10 mg/kg, po measured upto 72 hrs by LC-MS/MS analysis. Conditions: in vivo. It counts as ADME, organism-based.
Data set [17] can be described thus: Change in normalised AUCinfinity in rat at 10 mg/kg, po measured upto 72 hrs by LC-MS/MS analysis. It counts as ADME, organism-based. The note with it: in vivo.
A short description of data set [18]: Change in Cmax in rat at 37 umol/kg, po measured upto 72 hrs by LC-MS/MS analysis. Format: ADME, organism-based. The note with it: in vivo, at 37 µmol/kg.
Data set [19] is described as follows: Change in AUC (infinity) in rat at 37 umol/kg, po measured upto 72 hrs by LC-MS/MS analysis. It counts as ADME, organism-based. The note with it: in vivo, at 37 µmol/kg.

Where a SMILES comes first, the peptide text is derived from it. [ ]: non-standard residue; d: D form. dTrp(1-Me) = Cn1cc(C[C@@H](N)C(=O)O)c2ccccc21

In the case of `C[C@H](N)C(=O)N[C@H](Cc1cn(C)c2ccccc12)C(=O)O.Cl`, the remaining at 24 h, 5 µM in [1] was 40%; in data set [5] it was 34%; in data set [7], 25%; in data set [9], 12%. Also, the Stabilty came to 100% in [2] and 40% in data set [3]. Further, the remaining at 6 h, 5 µM in [4] was 58%. Further, the remaining at 1.5 h, 5 µM in data set [6] is 20%. For the same molecule, the remaining at 3 h, 5 µM in [8] was 36%. Also, the remaining at 2 h in data set [10] was 94%; in data set [11] it was 92%. Further, the remaining at 6 h in data set [12] is 65%. The remaining at 24 h in data set [13] turned out to be 0%. The Cmax/dose in data set [14] stood at 13.4 µM. The molecule also came in with an AUC/dose in [15] of 310 µM·h. Moreover, the results for the Activity in data set [16] and in data set [17] were -22% and -39%, respectively.

Regarding `Cn1cc(C[C@@H](NC(=O)[C@@H](N)CCCCN)C(=O)O)c2ccccc21.O=S(=O)(O)O`, the Activity in [18] is given as -4%; in data set [19], 10%.

On to `Cn1cc(C[C@@H](NC(=O)[C@@H](N)CCCCN)C(=O)O)c2ccccc21.O=P(O)(O)O`, for which the Activity in [18] is recorded as 4%; in data set [19], -17%.

As for `CCOC(=O)[C@@H](Cc1cn(C)c2ccccc12)NC(=O)[C@@H](N)CCC(N)=O.O=P(O)(O)O`, the Activity is recorded as -32% in data set [18] and -28% in data set [19].

For `Cn1cc(C[C@@H](N)C(=O)OCC(O)CO)c2ccccc21.O=S(=O)(O)O` (stereo partly drawn), the Activity in data set [18] is listed as 2%; in [19], 21%.

`CCOC(=O)[C@@H](Cc1cn(C)c2ccccc12)NC(=O)[C@@H](N)[C@@H](C)CC.Cl`: the remaining at 24 h, 5 µM in data set [1] is 97%; in [5] it was 63%; in [7] it was 97%; in [9], 38%. For the same molecule, the Stabilty in data set [2] is 95%; in [3], 97%. Besides, in data set [4], the remaining at 6 h, 5 µM stood at 97%. Further, the remaining at 1.5 h, 5 µM in [6] was 98%. The remaining at 3 h, 5 µM in data set [8] was 91%. For the same molecule, the remaining at 2 h in data set [10] and in data set [11] was 0% in each case. The remaining at 6 h in [12] came to 75%. Moreover, the remaining at 24 h in data set [13] is 16%. In [14], this molecule showed a Cmax/dose of 12.8 µM. Besides, the AUC/dose in data set [15] was found to be 606 µM·h. In addition, the Activity in [16] is listed as -26%; in data set [17], 19%.

For `Cn1cc(C[C@@H](N)C(=O)OCC2CCNCC2)c2ccccc21.O=P(O)(O)O`, the values for the Activity in data set [18] and in data set [19] were -79% and -64%, respectively.

`Cl.Cn1cc(C[C@@H](N)C(=O)OCC(N)C(=O)O)c2ccccc21` (single isomer, unassigned): the remaining at 24 h, 5 µM was 70% in data set [1], 0% in data set [5], 56% in data set [7] and 0% in [9]. Moreover, the values for the Stabilty in [2] and in [3] were 10% and 70%, respectively. Further, the remaining at 6 h, 5 µM in data set [4] came to 0%. The remaining at 1.5 h, 5 µM in data set [6] was 56%. The remaining at 3 h, 5 µM in data set [8] was 0%. The remaining at 2 h in data set [10] stood at 80%; in data set [11] it was 84%. Besides, in [12], the remaining at 6 h came out at 0%. Further, in data set [13], the remaining at 24 h was determined as 0%. In addition, the Cmax/dose in [14] was determined as 13.3 µM. The AUC/dose in data set [15] worked out at 588 µM·h. For the same molecule, the Activity is given as -23% in [16] and 16% in data set [17].

Regarding `CC(C)C(NC(=O)[C@H](N)Cc1cn(C)c2ccccc12)C(=O)O.Cl` (single isomer, unassigned), the remaining at 24 h, 5 µM was 98% in data set [1], 37% in data set [5], 49% in [7] and 64% in data set [9]. Moreover, the Stabilty is listed as 51% in data set [2] and 98% in [3]. In [4], the remaining at 6 h, 5 µM came to 99%. Moreover, in data set [6], the remaining at 1.5 h, 5 µM is 54%. In addition, in [8], the remaining at 3 h, 5 µM was 62%. The remaining at 2 h in [10] was found to be 89%; in data set [11] it was 100%. In addition, the remaining at 6 h in [12] stood at 68%. For the same molecule, in data set [13], the remaining at 24 h was 39%. This molecule returned a Cmax/dose in data set [14] of 1.6 µM. In addition, the AUC/dose in data set [15] is 202 µM·h. The Activity in data set [16] is -91%; in data set [17], -60%.

Consider `Cl.Cn1cc(C[C@@H](NC(=O)[C@@H](N)CCC(=O)O)C(=O)O)c2ccccc21`, for which the remaining at 24 h, 5 µM in [1] was 91%; in data set [5], 60%; in data set [7] it was 88%; in [9], 85%. Further, the Stabilty in data set [2] is reported as 99%; in data set [3] it was 91%. Also, the remaining at 6 h, 5 µM in data set [4] worked out at 81%. Besides, the remaining at 1.5 h, 5 µM in [6] is 90%. Also, the remaining at 3 h, 5 µM in data set [8] was 88%. Also, the remaining at 2 h in data set [10] and in data set [11] was 100% in each case. In addition, in [12], the remaining at 6 h stood at 90%. In addition, the remaining at 24 h in data set [13] was determined as 86%. Further, the Cmax/dose in [14] amounted to 17.6 µM. This molecule also had an AUC/dose in [15] of 574 µM·h. Further, the Activity in data set [16] is 2%; in [17] it was 13%.

Regarding `Cn1cc(C[C@@H](NC(=O)CN)C(=O)O)c2ccccc21.O=P(O)(O)O` (H-Gly-[dTrp(1-Me)]-OH), the values for the Activity in [18] and in data set [19] were -3% and 3%, respectively.

With `CCOC(=O)[C@@H](Cc1cn(C)c2ccccc12)NC(=O)[C@@H](N)CCC(N)=O.CS(=O)(=O)O`, the Activity in data set [18] was 4%; in data set [19], -12%.

`CCOC(=O)[C@@H](Cc1cn(C)c2ccccc12)NC(=O)[C@@H](N)CCC(N)=O`: the Activity in data set [18] is given as 5%; in data set [19], -16%.

Take `CS(=O)(=O)O.Cn1cc(C[C@@H](N)C(=O)OCC(O)CO)c2ccccc21` (stereo partly drawn): the Activity in data set [18] and in [19] was -27% each time.

On to `Cn1cc(C[C@@H](NC(=O)[C@@H](N)CCCCN)C(=O)O)c2ccccc21`, for which the Activity in [18] is on record as -17%; in [19] it was -13%.

In the case of `CCOC(=O)[C@@H](Cc1cn(C)c2ccccc12)NC(=O)[C@@H](N)CC(C)C.CS(=O)(=O)O`, the results for the Activity in data set [18] and in data set [19] were 111% and 127%, respectively.

Regarding `CCOC(=O)[C@@H](Cc1cn(C)c2ccccc12)NC(=O)[C@@H](N)CCC(N)=O.O=S(=O)(O)O`, the figures for the Activity in data set [18] and in data set [19] were 20% and -20%, respectively.

For the molecule `CCOC(=O)[C@@H](Cc1cn(C)c2ccccc12)NC(=O)[C@@H](N)CC(C)C.O=S(=O)(O)c1ccccc1`, the values for the Activity in data set [18] and in data set [19] were 29% and 45%, respectively.

Turning to `CCOC(=O)[C@@H](Cc1cn(C)c2ccccc12)NC(=O)[C@@H](N)CC(C)C.O=S(=O)(O)O`, the Activity in data set [18] is listed as -23%; in data set [19], -5%.
